From patent US7256199B1, “Pyrimidone derivatives” (Mitsubishi Chemical Corporation, priority 1998, dated 2007)
Counter-ions that a name gives are not always drawn.

Molecular target: T1, bovine cerebral TPK1 (Bos taurus, UniProt A0A3Q1MT31)
T1 construct: Against P-GS1 Phosphorylation by Bovine Cerebral TPK1; from tissue; host or cells: bovine cerebrum (brain)
Assay: Inhibitory activity against P-GS1 phosphorylation by bovine cerebral TPK1
Assay type: biochemical
Settings: 41.7 μM [γ-32P] ATP, 25° C., 2 hours, pH 6.5
Description: Test Example: Inhibitory Activity of the Medicament of the Present Invention Against P-GS1 Phosphorylation by Bovine Cerebral TPK1
A mixture containing 100 mM MES-sodium hydroxide (pH 6.5), 1 mM magnesium acetate, 0.5 mM EGTA, 5 mM β-mercaptoethanol, 0.02% Tween 20, 10% glycerol, 12 μg/ml P-GS1, 41.7 μM [γ-^32P] ATP (68 kBq/ml), bovine cerebral TPK1 and a compound shown in Table (a final mixture contained 1.7% DMSO deriving from a solution of a test compound prepared in the presence of 10% DMSO) was used as a reaction system. The phosphorylation was started by adding ATP, and the reaction was conducted at 25° C. for 2 hours, and then stopped by adding 21% perchloric acid on ice cooling. The reaction mixture was centrifuged at 12,000 rpm for 5 minutes and adsorbed on P81 paper (Whatmann), and then the paper was washed four times with 75 mM phosphoric acid, three times with water and once with acetone. The paper was dried, and the residual radioactivity was measured using a liquid scintillation counter.

T1 sequence (A0A3Q1MT31 1-419): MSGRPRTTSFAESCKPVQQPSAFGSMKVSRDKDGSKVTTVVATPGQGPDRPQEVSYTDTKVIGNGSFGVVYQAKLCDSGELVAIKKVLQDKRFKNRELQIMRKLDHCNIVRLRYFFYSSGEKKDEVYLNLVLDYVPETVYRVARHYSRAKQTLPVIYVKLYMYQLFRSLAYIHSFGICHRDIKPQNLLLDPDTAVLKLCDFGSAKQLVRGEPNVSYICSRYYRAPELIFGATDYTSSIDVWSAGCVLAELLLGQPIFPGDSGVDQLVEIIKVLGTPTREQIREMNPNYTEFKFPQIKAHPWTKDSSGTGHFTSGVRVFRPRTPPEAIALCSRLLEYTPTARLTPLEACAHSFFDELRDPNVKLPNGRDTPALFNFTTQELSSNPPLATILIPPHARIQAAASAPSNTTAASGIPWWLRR

Compound | IC50
O=c1cc(-c2ccncc2)nc(N2CCCC2)[nH]1 [Example 87, 2-(1-pyrrolidinyl)-6-(4-pyridyl)pyrimidin-4-one] | 2.6 µM
CN(C)Cc1cccc(-c2nc(-c3ccncc3)cc(=O)[nH]2)c1 [Example 27, 2-(3-(dimethylaminomethyl)phenyl)-6-(4-pyridyl)pyrimidin-4-one dihydrochloride] | 3.3 µM
O=c1cc(-c2ccncc2)nc(-c2ccccn2)[nH]1 [Example 37, 2-(2-pyridyl)-6-(4-pyridyl)pyrimidin-4-one] | 3.8 µM
Cc1ccc(Cc2nc(-c3ccncc3)cc(=O)[nH]2)cc1 [Example 31, 2-(4-methylbenzyl)-6-(4-pyridyl)pyrimidin-4-one] | 2.9 µM
CC(C)c1nc(-c2ccncc2)cc(=O)[nH]1 [Example 5, 2-isopropyl-6-(4-pyridyl)pyrimidin-4-one] | 2.1 µM
O=c1cc(-c2ccncc2)nc(C2CCCCC2)[nH]1 [Example 83, 2-cyclohexyl-6-(4-pyridyl)pyrimidin-4-one] | 2.8 µM
CN(C)c1nc(-c2ccncc2)cc(=O)[nH]1 [Example 44, 2-dimethylamino-6-(4-pyridyl)pyrimidin-4-one] | 3.7 µM
Cc1ccccc1-c1nc(-c2ccncc2)cc(=O)[nH]1 [Example 14, 6-(4-pyridyl)-2-(2-tolyl)pyrimidin-4-one] | 4 µM
O=c1cc(-c2ccncc2)nc(-c2cccc(Br)c2)[nH]1 [Example 19, 2-(3-bromophenyl)-6-(4-pyridyl)pyrimidin-4-one] | 8.7 µM
2-(ethylphenylamino)-6-(4-pyridyl)pyrimidin-4-one [Example 89] | 2.3 µM
Cc1cccc(-c2nc(-c3ccncc3)cc(=O)[nH]2)c1 [Example 15, 6-(4-pyridyl)-2-(3-tolyl)pyrimidin-4-one] | 2.2 µM
O=c1cc(-c2ccncc2)nc(-c2ccc([N+](=O)[O-])cc2)[nH]1 [Example 24, 2-(4-nitrophenyl)-6-(4-pyridyl)pyrimidin-4-one] | 5.3 µM
Cc1nc(-c2ccncc2)cc(=O)[nH]1 [Example 2, 2-methyl-6-(4-pyridyl)pyrimidin-4-one] | 3 µM
O=c1cc(-c2ccncc2)nc(Cc2cccs2)[nH]1 [Example 42, 6-(4-pyridyl)-2-(2-thienylmethyl)pyrimidin-4-one] | 7.6 µM
N#Cc1cccc(-c2nc(-c3ccncc3)cc(=O)[nH]2)c1 [Example 22, 2-(3-cyanophenyl)-6-(4-pyridyl)pyrimidin-4-one] | 6.2 µM
O=c1cc(-c2ccncc2)nc(N2CCCCC2)[nH]1 [Example 69, 2-(1-piperidino)-6-(4-pyridyl)pyrimidin-4-one] | 2.5 µM
Nc1nc(-c2ccncc2)cc(=O)[nH]1 [Example 43, 2-amino-6-(4-pyridyl)pyrimidin-4-one] | 5.7 µM
O=c1cc(-c2ccncc2)nc(-c2ccccc2)[nH]1 [Example 12, 2-phenyl-6-(4-pyridyl)pyrimidin-4-one] | 1.8 µM
O=c1cc(-c2ccncc2)nc(N2CCOCC2)[nH]1 [Example 82, 2-(4-morpholinyl)-6-(4-pyridyl)pyrimidin-4-one] | 4.3 µM
CN(Cc1ccccc1)c1nc(-c2ccncc2)cc(=O)[nH]1 [Example 79, 2-(N-benzyl-N-methylamino)-6-(4-pyridyl)pyrimidin-4-one] | 2.8 µM
O=c1cc(-c2ccncc2)nc(CCc2ccccc2)[nH]1 [Example 35, 2-(2-phenylethyl)-6-(4-pyridyl)pyrimidin-4-one] | 8.9 µM
COc1cccc(Nc2nc(-c3ccncc3)cc(=O)[nH]2)c1 [Example 93, 2-(3-methoxyphenylamino)-6-(4-pyridyl)pyrimidin-4-one] | 1.8 µM
O=c1cc(-c2ccncc2)nc(Cc2ccc(Cl)cc2)[nH]1 [Example 33, 2-(4-chlorobenzyl)-6-(4-pyridyl)pyrimidin-4-one] | 5.5 µM
O=c1cc(-c2ccncc2)nc(NCCCO)[nH]1 [Example 86, 2-(3-hydroxypropylamino)-6-(4-pyridyl)pyrimidin-4-one] | 10 µM
2-(butoxyphenylamino)-6-(4-pyridyl)pyrimidin-4-one [Example 90] | 6.3 µM
Cc1ccc(-c2nc(-c3ccncc3)cc(=O)[nH]2)cc1 [Example 16, 6-(4-pyridyl)-2-(4-tolyl)pyrimidin-4-one] | 4.8 µM
CC(C)Cc1nc(-c2ccncc2)cc(=O)[nH]1 [Example 7, 2-isobutyl-6-(4-pyridyl)pyrimidin-4-one] | 2.4 µM
O=c1cc(-c2ccncc2)nc(-c2cccnc2)[nH]1 [Example 1, 2-(3-pyridyl)-6-(4-pyridyl)pyrimidin-4-one] | 2.3 µM

Further compounds by falling IC50, results first:

IC50 | Compound
1.8 µM | O=c1cc(-c2ccncc2)nc(-c2ccncc2)[nH]1 [Example 38, 2,6-di(4-pyridyl)pyrimidin-4-one]
1.7 µM | O=c1cc(-c2ccncc2)nc(-c2ccc(O)cc2)[nH]1 [Example 97, 2-(4-hydroxyphenyl)-6-(4-pyridyl)pyrimidin-4-one]
1.6 µM | 2-(bromophenylamino)-6-(4-pyridyl)pyrimidin-4-one [Example 91]
1.6 µM | O=c1cc(-c2ccncc2)nc(Nc2ccccc2)[nH]1 [Example 92, 2-phenylamino-6-(4-pyridyl)pyrimidin-4-one]
1.4 µM | Cc1ccccc1Cc1nc(-c2ccncc2)cc(=O)[nH]1 [Example 29, 2-(2-methylbenzyl)-6-(4-pyridyl)pyrimidin-4-one]
1.4 µM | O=c1cc(-c2ccncc2)nc(NCC2CCCCC2)[nH]1 [Example 88, 2-cyclohexylmethylamino-6-(4-pyridyl)pyrimidin-4-one]
1.3 µM | CCCCc1nc(-c2ccncc2)cc(=O)[nH]1 [Example 6, 2-butyl-6-(4-pyridyl)pyrimidin-4-one]
1.3 µM | O=c1cc(-c2ccncc2)nc(Cc2ccccc2)[nH]1 [Example 28, 2-benzyl-6-(4-pyridyl)pyrimidin-4-one]
1.3 µM | O=c1cc(-c2ccncc2)nc(Cc2ccccc2Cl)[nH]1 [Example 68, 2-(2-chlorobenzyl)-6-(4-pyridyl)pyrimidin-4-one]
1.1 µM | O=c1cc(-c2ccncc2)nc(NCc2ccccc2)[nH]1 [Example 80, 2-benzylamino-6-(4-pyridyl)pyrimidin-4-one]
1.1 µM | CCN(CC)c1nc(-c2ccncc2)cc(=O)[nH]1 [Example 71, 2-(diethylamino)-6-(4-pyridyl)pyrimidin-4-one]
1.1 µM | CC(C)CN(C)c1nc(-c2ccncc2)cc(=O)[nH]1 [Example 84, 2-(N-isobutyl-N-methylamino)-6-(4-pyridyl)pyrimidin-4-one]
0.96 µM | CCCN(CCC)c1nc(-c2ccncc2)cc(=O)[nH]1 [Example 85, 2-dipropylamino-6-(4-pyridyl)pyrimidin-4-one]
0.77 µM | O=c1cc(-c2ccncc2)nc(Cc2cccc(-c3ccccc3)c2)[nH]1 [Example 96, 2-(3-phenylbenzyl)-6-(4-pyridyl)pyrimidin-4-one]
0.5 µM | O=c1cc(-c2ccncc2)nc(CCCc2ccccc2)[nH]1 [Example 36, 2-(3-phenylpropyl)-6-(4-pyridyl)pyrimidin-4-one]
